Measurements as given in US20240368150A1 (Hoffmann-La Roche Inc., priority 2021, published 2024).
Where two headings read alike, the source gives them in different places.

Tests used:
primary human T-cells [1] = assay: Proliferation assay after 5 days (CellTiter-Glo, CD3 stimulation; PBS counter screen); format: cell-based; conditions: Homo sapiens, T-cell, 120 h, CD3 stimulation; for Emax: 5 days, normalized to reference compound A1 as stimulator control = 100%, DMSO neutral control, read-out: Emax proliferation (% activation); for EC50: primary human T-cells, CellTiter-Glo after 5 days, EC50 of fitted sigmoidal curve, read-out: Tcell Proliferation CD3 EC50
In short: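 Proliferation is measured 5 days post-treatment as ATP-dependent luminescence. Flags mark compounds that activated unstimulated cells or harmed viability.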

primary human T-cells [2] = test system: primary human T-cells

Row | Structure (SMILES) | EC50 (primary human T-cells [2]) | Emax (primary human T-cells [1]) | EC50 (primary human T-cells [1])
1 | CC(C)(C#N)Nc1nc(-c2cc3c(cc2F)S(=O)(=O)C[C@H](N)C(=O)N3Cc2ccc(Cl)cc2)no1 [Example 199, 2-methyl-2-[[3-[(3R)-3-amino-5-[(4-chlorophenyl)methyl]-8-fluoro-1,1,4-trioxo-2,3-dihydro-1λ^6,5-benzothiazepin-7-yl]-1,2,4-oxadiazol-5-yl]amino]propanenitrile] | > 10000 nM | 71% | 2960 nM
2 | N[C@H]1CS(=O)(=O)c2cc(F)c(-c3noc(N4[C@@H]5CC[C@H]4COC5)n3)cc2N(Cc2ccc(Cl)cc2)C1=O [Example 200, (3R)-3-amino-5-[(4-chlorophenyl)methyl]-8-fluoro-1,1-dioxo-7-[5-[(1R,5S)-3-oxa-8-azabicyclo[3.2.1]octan-8-yl]-1,2,4-oxadiazol-3-yl]-2,3-dihydro-1λ^6,5-benzothiazepin-4-one] | 142 nM | 88% | 37.9 nM
3 | NC(CNc1nc(-c2cc3c(cc2F)S(=O)(=O)C[C@H](N)C(=O)N3Cc2ccc(Cl)cc2)no1)C(F)(F)F (stereo partly drawn) [Example 202, (3R)-3-amino-7-[5-[(2-amino-3,3,3-trifluoro-propyl)amino]-1,2,4-oxadiazol-3-yl]-5-[(4-chlorophenyl)methyl]-8-fluoro-1,1-dioxo-2,3-dihydro-1λ^6,5-benzothiazepin-4-one] | 1300 nM | 57% | 1430 nM
4 | C#CCOCCOCCCC(C)(C)Nc1nc(-c2cc3c(cc2F)S(=O)(=O)C[C@H](N)C(=O)N3Cc2ccc(Cl)cc2)no1 [Example 203, (3R)-3-amino-5-[(4-chlorophenyl)methyl]-7-[5-[[1,1-dimethyl-4-(2-prop-2-ynoxyethoxy)butyl]amino]-1,2,4-oxadiazol-3-yl]-8-fluoro-1,1-dioxo-2,3-dihydro-1λ^6,5-benzothiazepin-4-one] | 1580 nM | 99% | 233 nM
5 | CCc1coc(-c2cc3c(cc2F)S(=O)(=O)C[C@H](N)C(=O)N3Cc2ccc(Cl)cc2)n1 [Example 216, (3R)-3-amino-5-[(4-chlorophenyl)methyl]-7-(4-ethyloxazol-2-yl)-8-fluoro-1,1-dioxo-2,3-dihydro-1λ^6,5-benzothiazepin-4-one] | 16400 nM | 41% | > 20000 nM
6 | Cc1c(F)c(-c2nnc(C(C)(C)C)o2)cc2c1S(=O)(=O)C[C@H](N)C(=O)N2Cc1ccc(Cl)cc1 [Example 218, (3R)-3-amino-7-(5-tert-butyl-1,3,4-oxadiazol-2-yl)-5-[(4-chlorophenyl)methyl]-8-fluoro-9-methyl-1,1-dioxo-2,3-dihydro-1λ^6,5-benzothiazepin-4-one] | 7860 nM | 80% | 3890 nM
7 | CC(C)(C)c1nnc(-c2cc3c(cc2F)S(=O)(=O)C[C@H](N)C(=O)N3Cc2cccc(Cl)c2)o1 [Example 219, (3R)-3-amino-7-(5-tert-butyl-1,3,4-oxadiazol-2-yl)-5-[(3-chlorophenyl)methyl]-8-fluoro-1,1-dioxo-2,3-dihydro-1λ^6,5-benzothiazepin-4-one] | 3210 nM | 105% | 2740 nM
8 | CC(C)(C)c1nnc(-c2cc3c(cc2F)S(=O)(=O)C[C@H](N)C(=O)N3Cc2ccc(OC(F)F)cc2)o1 [Example 223, (3R)-3-amino-7-(5-tert-butyl-1,3,4-oxadiazol-2-yl)-5-[[4-(difluoromethoxy)phenyl]methyl]-8-fluoro-1,1-dioxo-2,3-dihydro-1λ^6,5-benzothiazepin-4-one] | > 20000 nM | 128% | < 162 nM
9 | CC(C)(C)c1nnc(-c2cc3c(cc2F)S(=O)(=O)C[C@H](N)C(=O)N3Cc2ccccn2)o1 [Example 224, (3R)-3-amino-7-(5-tert-butyl-1,3,4-oxadiazol-2-yl)-8-fluoro-1,1-dioxo-5-(2-pyridylmethyl)-2,3-dihydro-1λ^6,5-benzothiazepin-4-one] | > 20000 nM | 31% | > 20000 nM
10 | COc1ccc(CN2C(=O)[C@@H](N)CS(=O)(=O)c3cc(F)c(-c4nnc(C(C)(C)C)o4)cc32)cn1 [Example 225, (3R)-3-amino-7-(5-tert-butyl-1,3,4-oxadiazol-2-yl)-8-fluoro-5-[(6-methoxy-3-pyridyl)methyl]-1,1-dioxo-2,3-dihydro-1λ^6,5-benzothiazepin-4-one] | 4370 nM | 109% | 1890 nM
11 | CC(C)(C)c1nnc(-c2cc3c(cc2F)S(=O)(=O)C[C@H](N)C(=O)N3Cc2ccc(CN)cc2)o1 [Example 226, (3R)-3-amino-5-[[4-(aminomethyl)phenyl]methyl]-7-(5-tert-butyl-1,3,4-oxadiazol-2-yl)-8-fluoro-1,1-dioxo-2,3-dihydro-1λ^6,5-benzothiazepin-4-one] | > 20000 nM | 25% | > 20000 nM
12 | CC(C)(C)c1nnc(-c2cc3c(cc2F)S(=O)(=O)C[C@H](N)C(=O)N3Cc2ccccc2Cl)o1 [Example 227, (3R)-3-amino-7-(5-tert-butyl-1,3,4-oxadiazol-2-yl)-5-[(2-chlorophenyl)methyl]-8-fluoro-1,1-dioxo-2,3-dihydro-1λ^6,5-benzothiazepin-4-one] | > 20000 nM | 39% | > 20000 nM
13 | COc1ccc(CN2C(=O)[C@@H](N)CS(=O)(=O)c3cc(F)c(-c4nnc(C(C)(C)C)o4)cc32)nc1 [Example 228, (3R)-3-amino-7-(5-tert-butyl-1,3,4-oxadiazol-2-yl)-8-fluoro-5-[(5-methoxy-2-pyridyl)methyl]-1,1-dioxo-2,3-dihydro-1λ^6,5-benzothiazepin-4-one] | 5200 nM | 112% | 1740 nM

Further lines, with some results ahead:

Row | EC50 (primary human T-cells [2]) | Structure (SMILES) | Emax (primary human T-cells [1]) | EC50 (primary human T-cells [1])
14 | 167 nM | N[C@H]1CS(=O)(=O)c2cc(F)c(-c3noc(NC4CCC4)n3)cc2N(Cc2ccc(Cl)cc2)C1=O [Example 195, (3R)-3-amino-5-[(4-chlorophenyl)methyl]-7-[5-(cyclobutylamino)-1,2,4-oxadiazol-3-yl]-8-fluoro-1,1-dioxo-2,3-dihydro-1λ^6,5-benzothiazepin-4-one] | 108% | 106 nM
15 | 36.1 nM | N[C@H]1CS(=O)(=O)c2cc(F)c(-c3noc(N4CCOCC4)n3)cc2N(Cc2ccc(Cl)cc2)C1=O [Example 196, (3R)-3-amino-5-[(4-chlorophenyl)methyl]-8-fluoro-7-(5-morpholino-1,2,4-oxadiazol-3-yl)-1,1-dioxo-2,3-dihydro-1λ^6,5-benzothiazepin-4-one] | 81% | 16.6 nM
16 | 226 nM | N[C@H]1CS(=O)(=O)c2cc(F)c(-c3noc(N4CCC(F)(F)CC4)n3)cc2N(Cc2ccc(Cl)cc2)C1=O [Example 197, (3R)-3-amino-5-[(4-chlorophenyl)methyl]-7-[5-(4,4-difluoro-1-piperidyl)-1,2,4-oxadiazol-3-yl]-8-fluoro-1,1-dioxo-2,3-dihydro-1λ^6,5-benzothiazepin-4-one] | 112% | 118 nM
17 | 562 nM | N[C@H]1CS(=O)(=O)c2cc(F)c(-c3noc(N4CCNC(C(F)(F)F)C4)n3)cc2N(Cc2ccc(Cl)cc2)C1=O (stereo partly drawn) [Example 198, (3R)-3-amino-5-[(4-chlorophenyl)methyl]-8-fluoro-1,1-dioxo-7-[5-[3-(trifluoromethyl)piperazin-1-yl]-1,2,4-oxadiazol-3-yl]-2,3-dihydro-1λ^6,5-benzothiazepin-4-one] | 112% | 332 nM
18 | 828 nM | CC1(Nc2nc(-c3cc4c(cc3F)S(=O)(=O)C[C@H](N)C(=O)N4Cc3ccc(Cl)cc3)no2)CC(F)(F)C1 [Example 201, (3R)-3-amino-5-[(4-chlorophenyl)methyl]-7-[5-[(3,3-difluoro-1-methyl-cyclobutyl)amino]-1,2,4-oxadiazol-3-yl]-8-fluoro-1,1-dioxo-2,3-dihydro-1λ^6,5-benzothiazepin-4-one] | 156% | 229 nM
19 | 78.5 nM | N[C@H]1CS(=O)(=O)c2cc(F)c(-c3noc(N4CCOC(F)(F)C4)n3)cc2N(Cc2ccc(Cl)cc2)C1=O [Example 204, (3R)-3-amino-5-[(4-chlorophenyl)methyl]-7-[5-(2,2-difluoromorpholin-4-yl)-1,2,4-oxadiazol-3-yl]-8-fluoro-1,1-dioxo-2,3-dihydro-1λ^6,5-benzothiazepin-4-one] | 154% | 34.8 nM
20 | 542 nM | N[C@H]1CS(=O)(=O)c2cc(F)c(-c3noc(NC4CC(F)(F)C4)n3)cc2N(Cc2ccc(Cl)cc2)C1=O [Example 206] | 168% | 157 nM
21 | 780 nM | N[C@H]1CS(=O)(=O)c2ccc(-c3nnc(CC(F)(F)F)o3)c(F)c2N(Cc2ccc(Cl)cc2)C1=O [Example 217, (3R)-3-amino-5-[(4-chlorophenyl)methyl]-6-fluoro-1,1-dioxo-7-[5-(2,2,2-trifluoroethyl)-1,3,4-oxadiazol-2-yl]-2,3-dihydro-1λ^6,5-benzothiazepin-4-one] | 221% | 2110 nM
22 | 382 nM | CC(C)(C)c1nnc(-c2cc3c(cc2F)S(=O)(=O)C[C@H](N)C(=O)N3Cc2ccc(OC3CCOC3)cc2)o1 (stereo partly drawn) [Example 221, (3R)-3-amino-7-(5-tert-butyl-1,3,4-oxadiazol-2-yl)-8-fluoro-1,1-dioxo-5-[(4-tetrahydrofuran-3-yloxyphenyl)methyl]-2,3-dihydro-1λ^6,5-benzothiazepin-4-one] | 107% | 255 nM
23 | 535 nM | CC(C)(C)c1nnc(-c2cc3c(cc2F)S(=O)(=O)C[C@H](N)C(=O)N3Cc2ccc(OCC(F)F)cc2)o1 [Example 222, (3R)-3-amino-7-(5-tert-butyl-1,3,4-oxadiazol-2-yl)-5-[[4-(2,2-difluoroethoxy)phenyl]methyl]-8-fluoro-1,1-dioxo-2,3-dihydro-1λ^6,5-benzothiazepin-4-one] | 119% | 235 nM
